The results in this text go back to ChEMBL document CHEMBL6153032, “Discovery of a highly potent, N-terminal domain-targeting degrader of AR-FL/AR-V7 for the treatment of prostate cancer” (Eur J Med Chem, 2025).

What all share (format): cell-based
The subject of test [1] is Androgen receptor (Homo sapiens), P10275 [UNDEFINED MUTATION]. As to the kind of experiment: Binding affinity to AR-V7 in human 22Rv1 cells assessed as thermal stabilization at 10 uM incubated for 24 hrs by CETSA analysis.
The target in test [2] is T1, Androgen receptor (Homo sapiens) (UniProt P10275).
T1 sequence (whole entry): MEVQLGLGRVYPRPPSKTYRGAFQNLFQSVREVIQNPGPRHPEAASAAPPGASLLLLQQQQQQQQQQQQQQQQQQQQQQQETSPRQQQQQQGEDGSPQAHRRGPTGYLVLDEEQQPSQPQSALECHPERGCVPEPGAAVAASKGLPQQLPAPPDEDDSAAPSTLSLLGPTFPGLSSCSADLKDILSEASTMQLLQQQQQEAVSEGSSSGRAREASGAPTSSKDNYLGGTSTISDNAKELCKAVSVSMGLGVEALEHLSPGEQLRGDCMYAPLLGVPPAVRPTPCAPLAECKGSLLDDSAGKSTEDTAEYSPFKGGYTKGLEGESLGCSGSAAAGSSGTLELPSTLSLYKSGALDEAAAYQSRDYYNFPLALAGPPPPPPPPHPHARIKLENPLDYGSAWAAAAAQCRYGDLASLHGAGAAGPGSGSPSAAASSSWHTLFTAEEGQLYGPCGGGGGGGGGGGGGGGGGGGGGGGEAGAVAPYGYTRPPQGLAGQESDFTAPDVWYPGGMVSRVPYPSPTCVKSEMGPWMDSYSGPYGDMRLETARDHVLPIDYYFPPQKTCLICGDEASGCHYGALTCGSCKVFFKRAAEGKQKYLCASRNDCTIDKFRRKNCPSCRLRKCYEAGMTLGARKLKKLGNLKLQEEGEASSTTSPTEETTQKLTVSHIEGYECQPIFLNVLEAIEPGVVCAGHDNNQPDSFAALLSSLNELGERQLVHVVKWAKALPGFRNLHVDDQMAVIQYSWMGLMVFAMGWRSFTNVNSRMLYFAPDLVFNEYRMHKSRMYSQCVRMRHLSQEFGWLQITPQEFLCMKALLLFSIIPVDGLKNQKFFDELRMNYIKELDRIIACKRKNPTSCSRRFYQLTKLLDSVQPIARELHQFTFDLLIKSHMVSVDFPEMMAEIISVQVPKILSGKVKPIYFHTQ
The test is described as follows: Binding affinity to Androgen receptor in human 22Rv1 cells at 10 uM incubated for 24 hrs by SPR analysis. (In general: Surface plasmon resonance follows binding to a sensor surface in real time, without labels.)

Test [3] concerns Androgen receptor (Homo sapiens), P10275 [UNDEFINED MUTATION]. The test is described as follows: Binding affinity to AR-V7 in human 22Rv1 cells at 10 uM incubated for 24 hrs by SPR analysis.
The target in test [4] is T1, Androgen receptor (Homo sapiens). The test is described as follows: Binding affinity to Androgen receptor in human 22Rv1 cells assessed as thermal stabilization at 10 uM incubated for 24 hrs by CETSA analysis.

Active and inactive are the calls of the source. The rule behind the calls is not given here.

Turning to `CC(C)(c1ccc(O)cc1)c1ccc(OCc2cccc(N3CCOCC3)n2)cc1`, the result in test [1] and in test [4] was inactive. The outcome in test [2] and in test [3] was Active.
